In PubChem BioAssay AID330 (DTP/NCI, 2004):
Values joined by “and” are separate entries in the source; they are usually repeats but may differ in a detail not shown here. Equal entries are not always repeated. Inconclusive results and toxic doses are left out. How the source made its calls: active means survival T/C of 150% or more; inactive means T/C below 125% in these data.

System: P388 leukemia ip, CD2F1 mice, survival T/C
Experiment: NCI In Vivo Anticancer Drug Screen. Data for tumor model P388 Leukemia (intraperitoneal) in CD2F1 (CDF1) mice
Conditions: endpoint: median survival time, higher = longer survival
Method in brief: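 Mice carrying the transplanted tumor received test compound or vehicle. Survival was recorded in each group, and the value is the treated-group measurement divided by that of the vehicle-treated control group.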

[1] = dose: 15.0 mg/kg/injection, schedule: Q01DX005 (ip), vehicle: Klucel (hydroxypropylcellulose) (HPC)
[2] = dose: 30.0 mg/kg/injection, schedule: Q01DX005 (ip), vehicle: Klucel (hydroxypropylcellulose) (HPC)
[3] = dose: 60.0 mg/kg/injection, schedule: Q01DX005 (ip), vehicle: Klucel (hydroxypropylcellulose) (HPC)
[4] = dose: 120.0 mg/kg/injection, schedule: Q01DX005 (ip), vehicle: Klucel (hydroxypropylcellulose) (HPC)
[5] = dose: 100.0 mg/kg/injection, schedule: Q04DX003 (ip), vehicle: Klucel (hydroxypropylcellulose) (HPC)
[6] = dose: 200.0 mg/kg/injection, schedule: Q04DX003 (ip), vehicle: Klucel (hydroxypropylcellulose) (HPC)
[7] = dose: 400.0 mg/kg/injection, schedule: Q04DX003 (ip), vehicle: Klucel (hydroxypropylcellulose) (HPC)
[8] = dose: 60.0 mg/kg/injection, schedule: Q01DX005 (ip), vehicle: saline with Tween-80
[9] = dose: 120.0 mg/kg/injection, schedule: Q01DX005 (ip), vehicle: saline with Tween-80
[10] = dose: 240.0 mg/kg/injection, schedule: Q01DX005 (ip), vehicle: saline with Tween-80
[11] = dose: 50.0 mg/kg/injection, schedule: Q01DX005 (ip), vehicle: saline with Tween-80
[12] = dose: 100.0 mg/kg/injection, schedule: Q01DX005 (ip), vehicle: saline with Tween-80
[13] = dose: 200.0 mg/kg/injection, schedule: Q01DX005 (ip), vehicle: saline with Tween-80
[14] = dose: 8.0 mg/kg/injection, schedule: Q01DX009 (ip), vehicle: Klucel (hydroxypropylcellulose) (HPC)
[15] = dose: 16.0 mg/kg/injection, schedule: Q01DX009 (ip), vehicle: Klucel (hydroxypropylcellulose) (HPC)
[16] = dose: 50.0 mg/kg/injection, schedule: Q01DX009 (ip), vehicle: Klucel (hydroxypropylcellulose) (HPC)
[17] = dose: 100.0 mg/kg/injection, schedule: Q01DX009 (ip), vehicle: Klucel (hydroxypropylcellulose) (HPC)
[18] = dose: 200.0 mg/kg/injection, schedule: Q01DX009 (ip), vehicle: Klucel (hydroxypropylcellulose) (HPC)
[19] = dose: 240.0 mg/kg/injection, schedule: Q01DX005 (ip), vehicle: Klucel (hydroxypropylcellulose) (HPC)
[20] = dose: 60.0 mg/kg/injection, schedule: Q01DX005 (ip), vehicle: saline

Measured: T/C

Cc1c([N+](=O)[O-])oc2c1C(=O)c1ccccc1C2=O
inactive: [1] 95 % of control | [2] 95 % of control | [3] 95 % of control and 96 % of control | [4] 102 % of control

N#CC12C3C4C5C3C1n1c(=O)n(-c3ccccc3)c(=O)n1C5C42 (centres undefined)
inactive: [5] 106 % of control | [6] 106 % of control | [7] 107 % of control

CC1=C(C#N)C(C)(C)C(C#N)=C(C)N1C
inactive: dose: 25.0 mg/kg/injection, schedule: Q01DX009 (ip), vehicle: other 110 % of control | dose: 50.0 mg/kg/injection, schedule: Q01DX009 (ip), vehicle: other 111 % of control | dose: 50.0 mg/kg/injection, schedule: Q01DX009 (ip), vehicle: saline with Tween-80 102 % of control | dose: 100.0 mg/kg/injection, schedule: Q01DX009 (ip), vehicle: other 121 % of control | dose: 100.0 mg/kg/injection, schedule: Q01DX009 (ip), vehicle: saline with Tween-80 98 % of control

COc1cc(OC(=O)N(CCCl)N=O)cc(OC)c1OC
inactive: dose: 12.5 mg/kg/injection, schedule: Q01DX001 (ip), vehicle: Klucel (hydroxypropylcellulose) (HPC) 112 % of control | dose: 25.0 mg/kg/injection, schedule: Q01DX001 (ip), vehicle: Klucel (hydroxypropylcellulose) (HPC) 101 % of control | dose: 50.0 mg/kg/injection, schedule: Q01DX001 (ip), vehicle: Klucel (hydroxypropylcellulose) (HPC) 103 % of control

CC(=O)OCC1OC(OC2CC(=O)C[C@H]3C(=O)N(c4ccccc4)C(=O)[C@@H]23)C(OC(C)=O)C(OC(C)=O)C1OC(C)=O (some centres undefined)
inactive: [8] 102 % of control | [9] 103 % of control | [10] 92 % of control

COc1ccccc1NC(=O)C1=C(C)NC(C)=C(C(=O)Nc2ccccc2OC)C1c1ccc(Cl)cc1Cl
inactive: [11] 103 % of control | [12] 103 % of control | [13] 91 % of control

O=C1OC(=O)c2ccc3c4c(ccc1c24)C(=O)OC3=O
inactive: [11] 104 % of control | [12] 105 % of control

CC(=O)c1c(O)c(C)cc2c1CCc1ccc(O)c(C)c1-2
inactive: dose: 2.0 mg/kg/injection, schedule: Q01DX009 (ip), vehicle: Klucel (hydroxypropylcellulose) (HPC) 116 % of control | dose: 4.0 mg/kg/injection, schedule: Q01DX009 (ip), vehicle: Klucel (hydroxypropylcellulose) (HPC) 100 % of control | [14] 107 % of control | [15] 108 % of control

C=C1C(=O)OC2CC3(CO3)C3CC(OC(C)=O)C(=C)C3(O)CC12 (centres undefined)
inactive: [14] 99 % of control | [15] 116 % of control | dose: 32.0 mg/kg/injection, schedule: Q01DX009 (ip), vehicle: Klucel (hydroxypropylcellulose) (HPC) 119 % of control | dose: 64.0 mg/kg/injection, schedule: Q01DX009 (ip), vehicle: Klucel (hydroxypropylcellulose) (HPC) 114 % of control

CC[C@@H]1O[C@@H]([C@@H]2CC[C@](O)([C@]3(C)CC[C@@H]([C@@H](C)[C@@]4(O)CC[C@H](C)[C@@H](C[C@@]5(O)O[C@@H]([C@@H](C)[C@H](O)C[C@H]6CC[C@H](C)[C@@H]([C@@H](C)C(=O)O)O6)CC[C@@H]5C)O4)O3)O2)CC[C@@]1(C)O
inactive: dose: 0.12 mg/kg/injection, schedule: Q01DX009 (ip), vehicle: saline with Tween-80 109 % of control | dose: 0.25 mg/kg/injection, schedule: Q01DX009 (ip), vehicle: saline with Tween-80 111 % of control

O=C1C(Cl)=C(Oc2ccccc2Cl)C(=O)C(Cl)=C1Oc1ccccc1Cl
inactive: dose: 3.12 mg/kg/injection, schedule: Q01DX005 (ip), vehicle: Klucel (hydroxypropylcellulose) (HPC) 91 % of control and 96 % of control | dose: 6.25 mg/kg/injection, schedule: Q01DX005 (ip), vehicle: Klucel (hydroxypropylcellulose) (HPC) 98 % of control and 92 % of control | dose: 12.5 mg/kg/injection, schedule: Q01DX005 (ip), vehicle: Klucel (hydroxypropylcellulose) (HPC) 86 % of control and 87 % of control and 97 % of control | dose: 50.0 mg/kg/injection, schedule: Q01DX005 (ip), vehicle: Klucel (hydroxypropylcellulose) (HPC) 102 % of control | dose: 100.0 mg/kg/injection, schedule: Q01DX005 (ip), vehicle: Klucel (hydroxypropylcellulose) (HPC) 99 % of control | dose: 200.0 mg/kg/injection, schedule: Q01DX005 (ip), vehicle: Klucel (hydroxypropylcellulose) (HPC) 96 % of control

Clc1cccc(NN=Nc2ccccc2)c1
inactive: [16] 104 % of control | [17] 96 % of control | [18] 103 % of control

C=C(CC(=O)O)C(N)C(=O)O (centres undefined)
inactive: [3] 104 % of control | [4] 100 % of control | [19] 106 % of control

O=C(CC1=NC2NN(c3ccccc3)C(=O)C2=C1CC(=O)c1ccc(Cl)c(Cl)c1)c1ccc(Cl)c(Cl)c1 (centres undefined)
inactive: [20] 99 % of control | dose: 120.0 mg/kg/injection, schedule: Q01DX005 (ip), vehicle: saline 100 % of control | dose: 240.0 mg/kg/injection, schedule: Q01DX005 (ip), vehicle: saline 107 % of control

C/C(=N/N=C(N)N)c1cn(C(=N)N)nc1C
inactive: dose: 7.5 mg/kg/injection, schedule: Q01DX005 (ip), vehicle: saline 100 % of control and 101 % of control | dose: 15.0 mg/kg/injection, schedule: Q01DX005 (ip), vehicle: saline 109 % of control and 95 % of control | dose: 30.0 mg/kg/injection, schedule: Q01DX005 (ip), vehicle: saline 101 % of control and 95 % of control | [20] 101 % of control and 107 % of control | [4] 99 % of control | [19] 117 % of control

Cc1no[n+]([O-])c1C(N)=O
inactive: [8] 101 % of control | [9] 100 % of control | [10] 102 % of control

COC(=O)C1=C(C)NC(C)=C(C(=O)OCCCN2CCC(c3ccccc3)(c3ccccc3)CC2)C1c1cccc([N+](=O)[O-])c1 (centres undefined)
inactive: dose: 15.0 mg/kg/injection, schedule: Q01DX005 (ip), vehicle: saline with Tween-80 100 % of control | dose: 30.0 mg/kg/injection, schedule: Q01DX005 (ip), vehicle: saline with Tween-80 103 % of control | [8] 99 % of control

CC(C)=CCCC1(C)OC2(C)CCC1CC2 (centres undefined)
inactive: dose: 0.75 mg/kg/injection, schedule: Q01DX005 (ip), vehicle: Klucel (hydroxypropylcellulose) (HPC) 95 % of control | dose: 1.5 mg/kg/injection, schedule: Q01DX005 (ip), vehicle: Klucel (hydroxypropylcellulose) (HPC) 95 % of control | dose: 3.0 mg/kg/injection, schedule: Q01DX005 (ip), vehicle: Klucel (hydroxypropylcellulose) (HPC) 99 % of control | dose: 6.0 mg/kg/injection, schedule: Q01DX005 (ip), vehicle: Klucel (hydroxypropylcellulose) (HPC) 96 % of control

N#CC1(N2CCCCC2)CCCCC1
inactive: dose: 3.13 mg/kg/injection, schedule: Q01DX009 (ip), vehicle: Klucel (hydroxypropylcellulose) (HPC) 106 % of control | dose: 6.25 mg/kg/injection, schedule: Q01DX009 (ip), vehicle: Klucel (hydroxypropylcellulose) (HPC) 103 % of control | dose: 12.5 mg/kg/injection, schedule: Q01DX009 (ip), vehicle: Klucel (hydroxypropylcellulose) (HPC) 93 % of control

COC1/C=C\OC2(C)Oc3c(C)c(O)c4c(O)c(c5sc(N)nc5c4c3C2=O)NC(=O)/C(C)=C\C=C\C(C)C(O)C(C)C(O)C(C)C(OC(C)=O)C1C (centres undefined)
inactive: dose: 25.0 mg/kg/injection, schedule: Q01DX009 (ip), vehicle: Klucel (hydroxypropylcellulose) (HPC) 100 % of control | [16] 102 % of control | [17] 100 % of control | [18] 100 % of control

CC1(C)CCC2(C)N(c3ccccc3)C(=O)ON12 (centres undefined)
inactive: [11] 102 % of control | [12] 100 % of control | [13] 99 % of control

O=C(NC(=O)c1c(F)cccc1F)Nc1cc(Cl)c(F)c(Cl)c1F
inactive: [1] 98 % of control | [2] 90 % of control and 93 % of control | [3] 87 % of control and 94 % of control | [4] 93 % of control | [19] 88 % of control

CCOC(=O)C(SC#N)[Se]c1ccccc1 (centres undefined)
inactive: [11] 106 % of control | [12] 109 % of control

Cc1cc(C(=O)O)ccc1S(=O)(=O)F
inactive: [8] 101 % of control | [9] 105 % of control

CC(=O)/C=C/c1ccc([N+](=O)[O-])cc1
inactive: [16] 100 % of control | [17] 90 % of control | [5] 91 % of control | [18] 98 % of control | [6] 89 % of control | [7] 97 % of control
